Literature values as cited in US9382205B2, “Processes for the manufacture of a pharmaceutically active agent” (H. Lundbeck A/S, priority 2009, dated 2016).
Each block holds one compound with its values, some of them ahead of it.

Tests used:
[1] = Rogers et al. 1999
Alzheimer's patients = conditions: first report
human 5-HT6 receptor = conditions: from Roth et al. 1994

Structure (SMILES): COc1ccc(NS(=O)(=O)c2sc3ccc(Cl)cc3c2C)cc1N1CCNCC1 [SB-271046]
- performance in the Morris water maze [1]: improved performance
- spatial alternation operant behavior test (aged rats): improvements

Structure (SMILES): O=S(=O)(c1ccccc1)c1cnc2c(N3CCNCC3)cccc2c1 [SB-742457]
- clinical benefit (Alzheimer's patients): of clinical benefit

- Ki (human 5-HT6 receptor): 65 nM
Structure (SMILES): CN(C)CCC=C1c2ccccc2CCc2ccccc21 [amitriptyline]
